This note sets out measurements from patent publication US20040024024A1, “Aromatic sulfone hydroxamates and their use as protease inhibitors” (priority 2001, published 2004).

The structures appear in SMILES notation. A value given as a limit tells only on which side of the number the result lay.

The target in one test is T1, Human recombinant MMP-13 (Homo sapiens, UniProt P45452).
T1 construct: made in house; host or cells: baculovirus / insect cells
Kind of test: In vitro MMP inhibition, IC50 determination (fluorogenic substrate I). Type of test: biochemical. How it is done:
(§1) Several hydroxamates and salts thereof were analyzed in in vitro assays to determine their ability to inhibit the MMP cleavage of peptide substrates. Inhibition (Ki) and IC50 constants were calculated from the assayed hydroxamate-MMP interactions.
(§2) Human recombinant MMP-1, MMP-2, MMP-9, MMP-13, and MMP-14 were used in this assay. All enzymes were prepared in Assignee's laboratories following usual laboratory procedures. Protocols for the preparation and use of these enzymes are available in the scientific literature. See, e.g., Enzyme Nomenclature (Academic Press, San Diego, Calif., 1992) (and the citations therein). See also, Frije et al., J. Biol. Chem., 26(24), 16766-73 (1994).
The expressed proenzyme was first purified over a heparin agarose column, and then over a chelating zinc chloride column. The proenzyme was then activated by APMA for use in the assay. Further details on baculovirus expression systems may be found in, for example, Luckow et al., J. Virol., 67, 4566-79 (1993). See also, O'Reilly et al, Baculovirus Expression Vectors: A Laboratory Manual (W. H. Freeman and Co., New York, N.Y., 1992). See also, King et al., The Baculovirus Expression System: A Laboratory Guide (Chapman & Hall, London, England, 1992).
(§3) All MMPs were activated using 4-aminophenylmercuric acetate (“APMA”, Sigma Chemical, St. Louis, Mo.) or trypsin. MMP-9 also was activated using human recombinant MMP-3 (purified in Assignee's laboratory following standard cloning and purification techniques).
(§4) Two fluorogenic, methoxycoumarin-containing polypeptide substrates were used in the MMP inhibition assays:
(§5) MCA-ProLeuGlyLeuDpaAlaArgNH2 (I)
(§6) Here, “Dpa” is 3-(2,4-dinitrophenyl)-L-2,3-diaminopropionyl group, and “MCA” is 7-methoxycoumarin-4-yl acetyl. Substrate (I) was purchased from Baychem (Redwood City, Calif.), and substrate II was prepared Assignee's laboratory. Substrate I was used in the IC50 determination assays, while substrate II was used in the Ki determination assays. In the absence of MMP inhibitory activity, either substrate is cleaved at the Gly-Leu peptide bond. This cleavage separates the highly fluorogenic peptide from the 2,4-dinitrophenyl quencher, thus resulting in increase of fluorescent intensity.
(§7) The stock solutions of the assayed hydroxamates (or salts thereof) were prepared in 1% dimethyl sulfoxide (DMSO). These stock solutions were diluted in Buffer A (100 mM Tris-HCl, 100 mM NaCl, 10 mM CaCl2, 0.05% polyoxyethylene 23 lauryl ether, pH 7.5) to obtain solutions with different hydroxamate concentrations, i.e., assay solutions with different concentrations of the assayed MMP inhibitory compound. The experiment controls contained the same amount of Buffer A/DMSO as the assayed sample, but contained no hydroxamate (or salt thereof).
(§8) The assays from which the IC50 determinations were made were performed as follows. The MMPs were activated with either trypsin or APMA (4-aminophenylmercuric acetate, Sigma Chemical, St. Louis, Mo.). The assayed hydroxamate samples were, incubated in Microfluorrm White Plates (Dynatech, Chantilly, VA) and analyzed on a Perkin Elmer L550 plate reader (Norwalk, Conn.). The excitation wavelength was 328 nm, and the emission wavelength—415 nm. All samples (assayed hydroxamates and controls) were incubated in separate plates at room temperature in the presence of 4 μM of MMP substrate (I). As stated in the previous paragraph, samples containing varying concentrations of the same assayed hydroxamate were prepared. Inhibition was measured as a reduction in fluorescent intensity as a function of MMP inhibitor concentration.

The target of another test is T2, Human recombinant MMP-2 (Homo sapiens, UniProt P08253).
T2 construct: made in house; host or cells: MMP-2-transfected p2AHT2 cells
T2 sequence (P08253 110-660): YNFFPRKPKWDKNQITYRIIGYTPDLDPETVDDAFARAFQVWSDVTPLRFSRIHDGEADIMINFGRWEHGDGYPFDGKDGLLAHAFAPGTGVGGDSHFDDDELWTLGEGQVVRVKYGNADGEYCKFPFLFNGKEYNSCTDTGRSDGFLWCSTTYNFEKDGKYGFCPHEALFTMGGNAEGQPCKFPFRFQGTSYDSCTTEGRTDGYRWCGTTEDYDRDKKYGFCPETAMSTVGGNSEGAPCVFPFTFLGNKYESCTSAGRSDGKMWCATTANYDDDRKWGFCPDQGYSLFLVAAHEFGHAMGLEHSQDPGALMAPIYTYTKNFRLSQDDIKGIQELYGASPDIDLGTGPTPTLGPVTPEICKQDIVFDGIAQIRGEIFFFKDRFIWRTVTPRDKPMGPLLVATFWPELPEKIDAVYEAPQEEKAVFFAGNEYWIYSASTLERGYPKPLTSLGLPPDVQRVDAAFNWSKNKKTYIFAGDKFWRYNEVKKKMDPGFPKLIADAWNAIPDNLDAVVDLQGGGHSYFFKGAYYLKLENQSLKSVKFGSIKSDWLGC
The test is described as above. The format is biochemical. How it is done:
as §1, §2
The MMP-2 proenzyme was purified by gelatin Sepharose chromatography from MMP-2-transfected p2AHT2 cells provided by Dr. Gregory Goldberg of Washington University (St. Louis, Mo.).
as §3, §4, §5, §6, §7, §8

The mark [1] stands for this setting: value outside parentheses (Ki in parenthesis).

As for `COCCN1CCC(C(=O)NO)(S(=O)(=O)c2ccc(OCCCn3cc(-c4ccc(F)cc4)cn3)cc2)CC1` [Example 222], the IC50 on Human recombinant MMP-13 (value outside parenthesis) amounted to 0.0133 µM; at Human recombinant MMP-2 (value outside parenthesis), 0.138 µM.
On the same counts, the results for `COCCN1CCC(C(=O)NO)(S(=O)(=O)c2ccc(OCCCn3ccc(-c4ccc(OC)cc4)n3)cc2)CC1` [Example 223] are 0.0119 µM and 0.0697 µM.
On the same counts, the results for `COc1ccc(C(=O)NC(C)(C)CCOc2ccc(S(=O)(=O)C3(C(=O)NO)CCNCC3)cc2)cc1` [Example 225] are 0.0178 µM and 2.33 µM.
Turning to `CC(C)c1ccc(NC(=O)CCCOc2ccc(S(=O)(=O)C3(C(=O)NO)CCOCC3)cc2)cc1` [Example 227], the figures for the IC50 on Human recombinant MMP-13 (value outside parenthesis) and at Human recombinant MMP-2 (value outside parenthesis) were 0.0002 µM and 0.0027 µM, respectively.
For `COCCN1CCC(C(=O)NO)(S(=O)(=O)c2ccc(OCCCn3cc(-c4cccc(OC)c4)cn3)cc2)CC1` [Example 235], in that order: 0.026 µM and 0.422 µM.
On the same counts, the results for `COc1ccc(/C(C#N)=C/CCOc2ccc(S(=O)(=O)C3(C(=O)NO)CCOCC3)cc2)cc1` [Example 236] are 0.0034 µM and 0.0076 µM.
For `O=C(NO)C1(S(=O)(=O)c2ccc(OCCCc3nc(-c4ccc(C(F)(F)F)cc4)no3)cc2)CCOCC1` [Example 239], in that order: 0.0025 µM and 0.237 µM.
Take `CC(=O)NC(C)(C)CCOc1ccc(S(=O)(=O)C2(C(=O)NO)CCOCC2)cc1` [Example 242]: the IC50 was 0.203 µM at Human recombinant MMP-13 (value outside parenthesis) and 2.72 µM on Human recombinant MMP-2 (value outside parenthesis).
For `CN(C)c1c(F)cc(-c2noc(CCCOc3ccc(S(=O)(=O)C4(C(=O)NO)CCOCC4)cc3)n2)cc1F` [Example 251], in that order: 0.0054 µM and 0.182 µM.
On the same counts, the results for `COCCN1CCC(C(=O)NO)(S(=O)(=O)c2ccc(OCCCn3nc(C(F)(F)F)cc3C(F)(F)F)cc2)CC1` [Example 253] are 0.0324 µM and 1.45 µM.
For `O=C(CCCOc1ccc(S(=O)(=O)C2(C(=O)NO)CCN(C3CC3)CC2)cc1)C1CCC(O)(c2ccc(Cl)cc2)CC1` (stereo not shown) [Example 255], in that order: 0.0019 µM and 0.0513 µM.
Consider `COc1ccc2cc(C(=O)CCCCOc3ccc(S(=O)(=O)C4(C(=O)NO)CCN(C5CC5)CC4)cc3)ccc2c1` [Example 265], for which the IC50 at Human recombinant MMP-13 (value outside parenthesis) stood at 0.0002 µM; at Human recombinant MMP-2 (value outside parenthesis), 0.04 µM.
On the same counts, the results for `O=C(NO)C1(S(=O)(=O)c2ccc(OCCCc3ccc(-c4ccccc4)cc3)cc2)CCOCC1` [Example 270] are 0.0081 µM and 0.522 µM.
On the same counts, the results for `O=C(O)CCCOc1ccc(S(=O)(=O)C2(C(=O)NO)CCOCC2)cc1` [Example 273] are 0.304 µM and 1.01 µM.
For `CCOc1ccc(-c2noc(CCCOc3ccc(S(=O)(=O)C4(C(=O)NO)CCOCC4)cc3)n2)cc1` [Example 275], in that order: 0.0017 µM and 0.115 µM.
In the case of `O=C(NO)C1(S(=O)(=O)c2ccc(OCCCS(=O)(=O)N3CCC(Oc4ccc(C(F)(F)F)cc4)CC3)cc2)CCOCC1` [Example 279], the IC50 stood at 0.0094 µM at Human recombinant MMP-13 (value outside parenthesis) and 0.0159 µM on Human recombinant MMP-2 (value outside parenthesis).
On the same counts, the results for `Cc1cc(C)nc(SCCOc2ccc(S(=O)(=O)C3(C(=O)NO)CCOCC3)cc2)n1` [Example 283] are 0.0293 µM and 0.186 µM.
In the case of `COc1ccc(OC)c(-c2nnc(CCCOc3ccc(S(=O)(=O)C4(C(=O)NO)CCOCC4)cc3)o2)c1` [Example 291], the results for the IC50 on Human recombinant MMP-13 (setting [1]) and at Human recombinant MMP-2 (setting [1]) were 0.008 µM and 0.1 µM, respectively.
With `NS(=O)(=O)CCCOc1ccc(S(=O)(=O)C2(C(=O)NO)CCOCC2)cc1` [Example 296], the IC50 was 0.565 µM at Human recombinant MMP-13 (setting [1]) and 1.34 µM at Human recombinant MMP-2 (setting [1]).
For `CC(C)N(Cc1ccc(C(=O)CCCOc2ccc(S(=O)(=O)C3(C(=O)NO)CCOCC3)cc2)cc1)C(C)C` [Example 298], in that order: 0.0181 µM and 0.0119 µM.
Turning to `O=C(CCCOc1ccc(S(=O)(=O)C2(C(=O)NO)CCOCC2)cc1)c1ccc2ccccc2c1` [Example 299], the concentration for half-maximal inhibition (IC50) is 0.0001 µM at Human recombinant MMP-13 (setting [1]) and 0.0032 µM at Human recombinant MMP-2 (setting [1]).
For `O=C(CCCOc1ccc(S(=O)(=O)C2(C(=O)NO)CCOCC2)cc1)c1ccccc1-c1ccccc1` [Example 300], in that order: 0.0067 µM and 0.0125 µM.
On the same counts, the results for `CCOc1ccc(-c2nnc(CCCOc3ccc(S(=O)(=O)C4(C(=O)NO)CCOCC4)cc3)o2)cc1OCC` [Example 303] are 0.0099 µM and 0.05 µM.
On the same counts, the results for `O=C(NO)C1(S(=O)(=O)c2ccc(OCCCc3nnc(-c4ccc5ccccc5c4)o3)cc2)CCOCC1` [Example 304] are 0.0002 µM and 0.139 µM.
As to `O=C(CCCOc1ccc(S(=O)(=O)C2(C(=O)NO)CCOCC2)cc1)Nc1cc2ccccc2cc1O` [Example 312], the figures for the IC50 on Human recombinant MMP-13 (setting [1]) and on Human recombinant MMP-2 (setting [1]) were 0.0002 µM and 0.0091 µM, respectively.
Take `O=C(NO)C1(S(=O)(=O)c2ccc(OCCCc3nc4cc5ccccc5cc4o3)cc2)CCOCC1` [Example 313]: the results for the IC50 at Human recombinant MMP-13 (setting [1]) and at Human recombinant MMP-2 (setting [1]) were less than 0.0001 µM and 0.0181 µM, respectively.
On the same counts, the results for `COc1cc(SC)ccc1C(=O)NNC(=O)CCCOc1ccc(S(=O)(=O)C2(C(=O)NO)CCOCC2)cc1` [Example 314] are 0.0025 µM and 0.0078 µM.
On the same counts, the results for `O=C(NO)C1(S(=O)(=O)c2ccc(OCCCS(=O)(=O)N3CCOCC3)cc2)CCOCC1` [Example 315] are 0.0127 µM and 0.0128 µM.
On the same counts, the results for `COc1ccc(C(=O)[C@H](O)CCOc2ccc(S(=O)(=O)C3(C(=O)NO)CCOCC3)cc2)cc1` [Example 318] are 0.0973 µM and 0.615 µM.
Regarding `O=C(NO)C1(S(=O)(=O)c2ccc(OCCCN(c3nc4ccccc4s3)c3nc4ccccc4s3)cc2)CCOCC1` [Example 320], the results for the IC50 at Human recombinant MMP-13 (setting [1]) and on Human recombinant MMP-2 (setting [1]) were 6.11 µM and 5.86 µM, respectively.
For `COc1ccc2cc(C(=O)CCCCOc3ccc(S(=O)(=O)C4(C(=O)NO)CCOCC4)cc3)ccc2c1` [Example 328], in that order: less than 0.0001 µM and 0.0613 µM.
On the same counts, the results for `CON(C)C(=O)CCCCOc1ccc(S(=O)(=O)C2(C(=O)NO)CCOCC2)cc1` [Example 329] are 0.0086 µM and 0.103 µM.
For `COc1ccc(C(=O)NCCCCNc2ccc(S(=O)(=O)C3(C(=O)NO)CCOCC3)cc2)cc1` [Example 331], in that order: 0.261 µM and 0.386 µM.
As to `COc1cc2c(cc1OC)C(c1ccccc1)NC(C(=O)OCCCCOc1ccc(S(=O)(=O)C3(C(=O)NO)CCOCC3)cc1)C2` (stereo not shown) [Example 336], the figures for the 50% inhibitory concentration (IC50) at Human recombinant MMP-13 (setting [1]) and at Human recombinant MMP-2 (setting [1]) were 0.0198 µM and 0.301 µM, respectively.
For `COc1cc2c(cc1OC)CN(CCCCOc1ccc(S(=O)(=O)C3(C(=O)NO)CCOCC3)cc1)C(C)C2` (stereo not shown) [Example 337], in that order: 0.0122 µM and 0.0419 µM.
